Results reported in US20020115642A1, “Beta-lactam antibiotics” (priority 2000, published 2002).
≈ marks a conversion by molar mass, not a printed value. Like-named read-outs stand apart in the source and are kept apart here.

Assays:
E. faecium = test: Susceptibility testing (MIC, modified NCCLS method); format: cell-based, Enterococcus faecium; conditions: Enterococcus faecium, read-out: GM* MIC (geometric mean)
Protocol: (§1) The NCCLS (National Committee for Clinical Laboratory Standards) method to determine MIC's of antimicrobial compounds was modified for high-throughput screening. All stocks of tested compounds were prepared in either water or in dimethylsulfoxide (DMSO), depending on the solubility. […] Briefly 20 2-fold serial dilutions of testing compounds from the highest concentration were made in a 384-well microtiter plate. Each well was inoculated with testing bacteria in broth to a final concentration of approximately 1-1.5×10^6 cells/ml. Bacterial growth was determined by the increase of optical density at 600 nm using a microplate reader (Tecan SpectraFluor Plus).

Staphylococcus aureus = test: as above; format: cell-based; conditions: Staphylococcus aureus
Protocol: as §1

[1] = test system: Vancomycin-resistant E. faecalis or E. faecium; test: as above; format: cell-based, Enterococcus faecalis, Enterococcus faecium
Protocol: as §1

E. faecalis = test: as above; format: cell-based, Enterococcus faecalis; conditions: Enterococcus faecalis, read-out: GM* MIC (geometric mean)
Protocol: as §1

S. epidermidis = test: as above; format: cell-based, Staphylococcus epidermidis; conditions: for MIC: Staphylococcus epidermidis
Protocol: as §1

E coli R(Tem1) = test: Inhibition of bacterial growth (IC50, OD600); format: cell-based; conditions: for IC50 ratio N/R: N versus R (Tem1)
Protocol: Compounds of the invention were tested for their ability to inhibit the growth of β-lactam sensitive and resistant bacteria by contacting samples of such cells with various dilutions of the compositions, incubating the cells at 37° C. in the presence of these compositions and then measuring the number of viable cells present in each sample.
Two compounds of the invention were tested, Compound (9) and Compound (1l). Incubation of bacterial cells was performed for two time periods, 10 hours and 20 hours. Four E. coli strains were used for the test. These strains were all derived from the strain NovaBlue (NovaGen Inc., Madison, Wis.). E. coli N is a normal, β-lactam sensitive strain. E coli R(Tem1) is a β-lactam resistant strain with a β-lactamase gene on a plasmid. E. coli C(Tem4O-15) is a β-lactam resistant strain with a β-lactam inhibitor resistant β-lactamase gene, and E. coli C(Tem3 1-27) is β-lactam resistant strain with an alternative β-lactam inhibitor resistant β-lactamase gene.
The various E. coli strains were each treated with dilutions of the compounds of the invention. […] The number of viable cells at each time point was determined by measuring the OD600 of each cell sample.
After measuring the number of viable cells present, the IC50 for each sample was determined. […] In addition, both compounds were effective at inhibiting the growth of both antibiotic sensitive and resistant bacterial cells.

[2] = test system: UDP-glucuronosyltransferase; test: Glucuronidation assay; format: in vitro ADME, human; conditions: 100 μM, 100 μg human liver microsome, 37° C., 1 hour, TLC
Protocol: Assays were conducted as outlined in Example 15, using 100 μM Compound (9), triclosan or cephalothin incubated with 100 μg human liver microsome at 37° C. for 1 hour. The reactants were analyzed on TLC plate, and glucuronidated compounds were visualized by MolecularDynamics Storm 820.
Glucuronidation assay was performed based on modified procedure from Bansal and Gessner (1980) Anal. Biochem. 109:321-329. Reactions were performed in 50 mM Tris buffer, pH 7.6, containing 10 mM MgCl2, ImM UDPGA, 0.04 μCi of ^14C-UDPGA, 0.1 mM substrate, and 100 μg human liver microsome. The final volume was 100 μL. Reactions were incubated at 37° C. for one hour and the reactants extracted with 200 μL of 100% ethanol. The protein was removed by centrifugation at 12,000×g for 5 minutes in an Eppendorf centrifuige. The supernatant was dried and resuspended in 30 μL of 100% methanol and spotted on a Whatman glass-backed linear k TLC plate. Chromatography was performed in a mixture of 1-butanol/acetone/acetic acid/water (35:35:10:20). The TLC plate was then dried and exposed to phosphor imager overnight, then monitored by imaging (MolecularDynamics Storm 820).

For `CN[C@H](CC(C)C)C(=O)N[C@H]1C(=O)N[C@@H](CC(N)=O)C(=O)N[C@H]2C(=O)N[C@H]3C(=O)N[C@H](C(=O)N[C@H](C(=O)O)c4cc(O)cc(O)c4-c4cc3ccc4O)[C@H](O)c3ccc(c(Cl)c3)Oc3cc2cc(c3O[C@@H]2O[C@H](CO)[C@@H](O)[C@H](O)[C@H]2O[C@H]2C[C@](C)(N)[C@H](O)[C@H](C)O2)Oc2ccc(cc2Cl)[C@H]1O` [Vancomycin, vancomycin, reference compound], the MIC (E. faecium) was > 3.49 µg/mL, the MIC (Staphylococcus aureus; ATCC11632, ATCC 11632, methicillin-sensitive, β-lactamase Neg./Pos.) was 0.25 µg/mL (≈ 0.173 µM) and the MIC (Staphylococcus aureus; ATCC13301, ATCC 13301, methicillin-sensitive, β-lactamase Positive) was 0.25 µg/mL (≈ 0.173 µM). It also gave an MIC (Staphylococcus aureus; ATCC14154, ATCC 14154, methicillin-sensitive, β-lactamase Positive) of 0.5 µg/mL (≈ 0.345 µM), an MIC (Staphylococcus aureus; ATCC33591, ATCC 33591, methicillin-resistant, β-lactamase Positive) of 0.25 µg/mL (≈ 0.173 µM) and an MIC (Staphylococcus aureus; ATCC33592, ATCC 33592, methicillin-sensitive, β-lactamase Positive) of 0.5 µg/mL (≈ 0.345 µM). For the same molecule, the MIC (Staphylococcus aureus; ATCC33593, ATCC 33593, methicillin-resistant, β-lactamase Positive) was 0.5 µg/mL (≈ 0.345 µM), the MIC (Staphylococcus aureus; ATCC33594, ATCC 33594, methicillin-sensitive, β-lactamase Positive) was 0.5 µg/mL (≈ 0.345 µM) and the MIC (Staphylococcus aureus; ATCC43300, ATCC 43300, methicillin-sensitive, β-lactamase Neg./Pos.) was 0.5 µg/mL (≈ 0.345 µM). The MIC (Staphylococcus aureus; ATCC700260, ATCC 700260, methicillin-sensitive, β-lactamase Positive) was 1 µg/mL (≈ 0.69 µM), the MIC (Staphylococcus aureus; ATCC700698, ATCC 700698, methicillin-resistant, β-lactamase Negative) was 2 µg/mL (≈ 1.38 µM) and the MIC (Staphylococcus aureus; ATCC700699, ATCC 700699, methicillin-resistant, β-lactamase Negative) was 4 µg/mL (≈ 2.76 µM). The MIC (Staphylococcus aureus; ATCC700787, ATCC 700787, methicillin-resistant, β-lactamase Positive) was 8 µg/mL (≈ 5.52 µM), the MIC (Staphylococcus aureus; ATCC700788, ATCC 700788, methicillin-resistant, β-lactamase Positive) was 2 µg/mL (≈ 1.38 µM) and the MIC (Staphylococcus aureus; ATCC700789, ATCC 700789, methicillin-resistant, β-lactamase Positive) was 2 µg/mL (≈ 1.38 µM). The MIC (Staphylococcus aureus; MRSA, read-out: Geometric mean of MIC, MRSA tested (7)) was 1.64 µg/mL (≈ 1.13 µM), the MIC (Staphylococcus aureus; MSSA, read-out: Geometric mean of MIC, MSSA tested (7)) was 0.36 µg/mL (≈ 0.248 µM) and the MIC (Staphylococcus aureus; read-out: Geometric mean of MIC, S. aureus (14)) was 0.86 µg/mL (≈ 0.593 µM). The MIC (Staphylococcus aureus; read-out: Geometric mean of MIC, S. aureus β-lactamase negative (2)) was 2.83 µg/mL (≈ 1.95 µM), the MIC (Staphylococcus aureus; read-out: Geometric mean of MIC, S. aureus β-lactamase positive (12)) was 0.94 µg/mL (≈ 0.649 µM) and the MIC ([1]; Enterococcus, VRE, read-out: GM* MIC (geometric mean)) was > 47.4 µg/mL. The “GM* MIC (geometric mean)” value ([1]; VRE (5)) was >47.4 µg/mL, the MIC (E. faecalis) was > 6.41 µg/mL and the MIC range (S. epidermidis; S. epidermidis (5)) was 1 to 2 µg/mL. The MIC (S. epidermidis; read-out: GM* MIC (geometric mean)) was 1.74 µg/mL (≈ 1.2 µM) and the MIC (S. epidermidis; read-out: MICs of heterogeneous vancomycin resistant strains) was 2 µg/mL (≈ 1.38 µM).
In the case of `Oc1cc(Cl)ccc1Oc1ccc(Cl)cc1Cl` [Triclosan, triclosan, reference compound], the “IC50 ratio N/R” value (E coli R(Tem1); 10 hours) is reported as “N/R = 1555x”, the “IC50 ratio N/R” value (E coli R(Tem1); 20 hours) is reported as “N/R = 2.5x” and the IC50 (E coli R(Tem1); Escherichia coli, 10 h, read-out: IC50 10 hours, Cell R (Tem1), 10 hours) is reported as 0.166 nM. For the same molecule, the IC50 (E coli R(Tem1); read-out: IC50 10 hours, Cell R (Tem1), 10 hours) was 0.24 nM and the “glucuronidation by human liver microsome” value [2] was “glucuronidated”.
